Measured values as given in US8822503B2, “2-pyridone compounds” (Taisho Pharmaceutical Co., Ltd, priority 2009, dated 2014).

Molecular target: T1, human liver GK (Homo sapiens, UniProt P35557)
T1 construct: GST (glutathione S-transferase) (N); made in house; host or cells: E. coli
T1 sequence (P35557 1-466 isoform P35557-2): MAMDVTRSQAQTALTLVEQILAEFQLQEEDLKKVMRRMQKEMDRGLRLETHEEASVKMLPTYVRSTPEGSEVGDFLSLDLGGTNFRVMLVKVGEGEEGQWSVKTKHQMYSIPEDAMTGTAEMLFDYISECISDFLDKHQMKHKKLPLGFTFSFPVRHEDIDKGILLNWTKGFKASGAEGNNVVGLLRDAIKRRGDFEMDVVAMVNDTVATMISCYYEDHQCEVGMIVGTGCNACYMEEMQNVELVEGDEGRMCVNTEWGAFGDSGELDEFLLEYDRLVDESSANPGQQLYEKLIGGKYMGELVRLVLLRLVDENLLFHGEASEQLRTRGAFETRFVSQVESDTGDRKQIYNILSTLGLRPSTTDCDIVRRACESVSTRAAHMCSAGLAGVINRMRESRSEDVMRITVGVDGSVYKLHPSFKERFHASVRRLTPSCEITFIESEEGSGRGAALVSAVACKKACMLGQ
Experiment: GK activation test
Assay type: biochemical
Conditions: test compound concentration needed to activate 50% of maximum activation ability; 4 mM 14C-labeled glucose, 2 mM ATP, room temperature, 20 minutes
Summary of the method: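 GST-tagged human liver GK from E. coli (0.24 μg/well) with 4 mM 14C-glucose, 2 mM ATP in Hepes-KOH pH 7.1, KCl, MgCl2, DTT, 1% DMSO, 20 min room temperature. Labeled glucose 6-phosphate captured on anion resin, eluted and counted. EC50 = concentration giving half of maximal activation.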

| SMILES | EC50 [nM] |
| --- | --- |
| CCCc1ccc(/C(=C/[C@H]2CCC(=O)N2)c2ccc(C(C)(C)C)cc2)[nH]c1=O [Example 4-192, 6-{(E)-1-(4-tert-Butylphenyl)-2-[(2R)-5-oxopyrrolidin-2-yl]ethenyl}-3-propylpyridin-2(1H)-one] | 10 to 500 |
| CC(C)(C)c1ccc(/C(=C\[C@H]2CCC(=O)N2)c2ccc(CCCO)c(=O)[nH]2)cc1 [Example 4-198, 6-{(E)-1-(4-tert-Butylphenyl)-2-[(2R)-5-oxopyrrolidin-2-yl]ethenyl}-3-(3-hydroxypropyl)pyridin-2(1H)-one] | 10 to 500 |
| O=C1CC[C@H](/C=C(\c2ccc(Cl)cc2)c2ccc(CCCCO)c(=O)[nH]2)N1 [Example 4-199, 6-{(E)-1-(4-Chlorophenyl)-2-[(2R)-5-oxopyrrolidin-2-yl]ethenyl}-3-(4-hydroxybutyl)pyridin-2(1H)-one] | 500 to 3000 |
| CC(C)(C)c1ccc(/C(=C\[C@H]2CCC(=O)N2)c2ccc(C#N)c(=O)[nH]2)cc1 [Example 4-202, 6-{(E)-1-(4-tert-Butylphenyl)-2-[(2R)-5-oxopyrrolidin-2-yl]ethenyl}-2-oxo-1,2-dihydropyridine-3-carbonitrile] | 500 to 3000 |
| CC(C)(C)c1ccc(C(=C[C@H]2CCC(=O)N2)c2ccc(C3(O)CCC3)c(=O)[nH]2)cc1 [Example 4-203, 6-{1-(4-tert-Butylphenyl)-2-[(2R)-5-oxopyrrolidin-2-yl]ethenyl}-3-(1-hydroxycyclobutyl)pyridin-2(1H)-one] | 3000 to 10000 |
| CC(C)(C)c1ccc(/C(=C\[C@H]2CCC(=O)N2)c2ccc(Cc3ccccc3)c(=O)[nH]2)cc1 [Example 4-205, 3-Benzyl-6-{(E)-1-(4-tert-butylphenyl)-2-[(2R)-5-oxopyrrolidin-2-yl]ethenyl}pyridin-2(1H)-one] | 10 to 500 |
| CSc1ccc(/C(=C/[C@H]2CCC(=O)N2)c2ccc(C(C)(C)C)cc2)[nH]c1=O [Example 4-206, 6-{(E)-1-(4-tert-Butylphenyl)-2-[(2R)-5-oxopyrrolidin-2-yl]ethenyl}-3-(methylsulfanyl)pyridin-2(1H)-one] | 10 to 500 |
| O=C1CC[C@H](C[C@H](c2ccc(Cl)c(Cl)c2)c2ccc(C3CC3)c(=O)[nH]2)N1 [Example 4-207, 3-Cyclopropyl-6-{(1R)-1-(3,4-dichlorophenyl)-2-[(2R)-5-oxopyrrolidin-2-yl]ethyl}pyridin-2(1H)-one] | 10 to 500 |
| Cc1ccc(/C(=C\[C@H]2CCC(=O)N2)c2ccc(Cl)c(=O)[nH]2)cc1 [Example 4-256, 3-Chloro-6-{(E)-1-(4-methylphenyl)-2-[(2R)-5-oxopyrrolidin-2-yl]ethenyl}pyridin-2(1H)-one] | 500 to 3000 |
| COc1ccc(/C(=C\[C@H]2CCC(=O)N2)c2ccc(C3CC3)c(=O)[nH]2)cc1Cl [Example 4-260, 6-{(E)-1-(3-Chloro-4-methoxyphenyl)-2-[(2R)-5-oxopyrrolidin-2-yl]ethenyl}-3-cyclopropylpyridin-2(1H)-one] | 10 to 500 |
| O=C1CC[C@H](/C=C(\c2cccc(C(F)(F)F)c2)c2ccc(Cl)c(=O)[nH]2)N1 [Example 4-261, 3-Chloro-6-{(E)-2-[(2R)-5-oxopyrrolidin-2-yl]-1-[3-(trifluoromethyl)phenyl]ethenyl}pyridin-2(1H)-one] | 3000 to 10000 |
| O=C1CC[C@H](/C=C(/c2ccc(Cl)c(=O)[nH]2)c2ccc(C(F)(F)F)cc2F)N1 [Example 4-262, 3-Chloro-6-{(E)-1-[2-fluoro-4-(trifluoromethyl)phenyl]-2-[(2R)-5-oxopyrrolidin-2-yl]ethenyl}pyridin-2(1H)-one] | 500 to 3000 |
| CC1(C)CCc2cc(/C(=C\[C@H]3CCC(=O)N3)c3ccc(Cl)c(=O)[nH]3)ccc2O1 [Example 4-263, 3-Chloro-6-{(E)-1-(2,2-dimethyl-3,4-dihydro-2H-chromen-6-yl)-2-[(2R)-5-oxopyrrolidin-2-yl]ethenyl}pyridin-2(1H)-one] | 500 to 3000 |
| Cc1cc(/C(=C\[C@H]2CCC(=O)N2)c2ccc(C3CC3)c(=O)[nH]2)ccc1C(F)(F)F [Example 4-265, 3-Cyclopropyl-6-{(E)-1-[3-methyl-4-(trifluoromethyl)phenyl]-2-[(2R)-5-oxopyrrolidin-2-yl]ethenyl}pyridin-2(1H)-one] | 10 to 500 |
| O=C1CC[C@H](/C=C(/c2ccc(C3CC3)c(=O)[nH]2)c2ccc(Cl)cc2F)N1 [Example 4-266, 6-{(E)-1-(4-Chloro-2-fluorophenyl)-2-[(2R)-5-oxopyrrolidin-2-yl]ethenyl}-3-cyclopropylpyridin-2(1H)-one] | 10 to 500 |
| O=C1CC[C@H](/C=C(/c2ccc(C3CC3)c(=O)[nH]2)c2ccc(C(F)(F)F)cc2F)N1 [Example 4-267, 3-Cyclopropyl-6-{(E)-1-[2-fluoro-4-(trifluoromethyl)phenyl]-2-[(2R)-5-oxopyrrolidin-2-yl]ethenyl}pyridin-2(1H)-one] | 10 to 500 |

The next lines start with the values.

| EC50 [nM] | SMILES |
| --- | --- |
| 10 to 500 | CCCCCc1ccc(/C(=C/[C@H]2CCC(=O)N2)c2ccc(C(C)(C)C)cc2)[nH]c1=O [Example 4-193, 6-{(E)-1-(4-tert-Butylphenyl)-2-[(2R)-5-oxopyrrolidin-2-yl]ethenyl}-3-pentylpyridin-2(1H)-one] |
| 10 to 500 | CC(C)(C)c1ccc(/C(=C\[C@H]2CCC(=O)N2)c2ccc(C3CCCC3)c(=O)[nH]2)cc1 [Example 4-194, 6-{(E)-1-(4-tert-Butylphenyl)-2-[(2R)-5-oxopyrrolidin-2-yl]ethenyl}-3-cyclopentylpyridin-2(1H)-one] |
| 10 to 500 | CC(C)(C)c1ccc(/C(=C\[C@H]2CCC(=O)N2)c2ccc(CCC3CCCCC3)c(=O)[nH]2)cc1 [Example 4-195, 6-{(E)-1-(4-tert-Butylphenyl)-2-[(2R)-5-oxopyrrolidin-2-yl]ethenyl}-3-(2-cyclohexylethyl)pyridin-2(1H)-one] |
| 10 to 500 | CC(C)(C)c1ccc(/C(=C\[C@H]2CCC(=O)N2)c2ccc(CCc3ccccc3)c(=O)[nH]2)cc1 [Example 4-196, 6-{(E)-1-(4-tert-Butylphenyl)-2-[(2R)-5-oxopyrrolidin-2-yl]ethenyl}-3-(2-phenylethyl)pyridin-2(1H)-one] |
| 500 to 3000 | CC(C)(C)c1ccc(/C(=C\[C@H]2CCC(=O)N2)c2ccc(CCCc3ccccc3)c(=O)[nH]2)cc1 [Example 4-197, 6-{(E)-1-(4-tert-Butylphenyl)-2-[(2R)-5-oxopyrrolidin-2-yl]ethenyl}-3-(3-phenylpropyl)pyridin-2(1H)-one] |
| 500 to 3000 | O=C1CC[C@H](/C=C(\c2ccc(C(F)(F)F)cc2)c2ccc(CCCCO)c(=O)[nH]2)N1 [Example 4-200, 3-(4-Hydroxybutyl)-6-{(E)-2-[(2R)-5-oxopyrrolidin-2-yl]-1-[4-(trifluoromethyl)phenyl]ethenyl}pyridin-2(1H)-one] |
| 500 to 3000 | CC(C)(C)c1ccc(/C(=C\[C@H]2CCC(=O)N2)c2ccc(CCC(N)=O)c(=O)[nH]2)cc1 [Example 4-201, 3-(6-{(E)-1-(4-tert-Butylphenyl)-2-[(2R)-5-oxopyrrolidin-2-yl]ethenyl}-2-oxo-1,2-dihydropyridin-3-yl)propanamide] |
| 3000 to 10000 | O=C1CC[C@H](C[C@@H](c2ccc(Cl)c(Cl)c2)c2ccc(C3CC3)c(=O)[nH]2)N1 [Example 4-208, 3-Cyclopropyl-6-{(1S)-1-(3,4-dichlorophenyl)-2-[(2R)-5-oxopyrrolidin-2-yl]ethyl}pyridin-2(1H)-one] |
| 3000 to 10000 | CCOc1ccc(C(C[C@H]2CCC(=O)N2)c2ccc(Cl)c(=O)[nH]2)cc1F (stereo partly drawn) [Example 4-241, 3-Chloro-6-{1-(4-ethoxy-3-fluorophenyl)-2-[(2R)-5-oxopyrrolidin-2-yl]ethyl}pyridin-2(1H)-one] |
| 10 to 500 | CCc1ccc(/C(=C\[C@H]2CCC(=O)N2)c2ccc(Cl)c(=O)[nH]2)cc1Cl [Example 4-257, 3-Chloro-6-{(E)-1-(3-chloro-4-ethylphenyl)-2-[(2R)-5-oxopyrrolidin-2-yl]ethenyl}pyridin-2(1H)-one] |
| 10 to 500 | CC(C)Oc1ccc(/C(=C\[C@H]2CCC(=O)N2)c2ccc(C3CC3)c(=O)[nH]2)cc1Cl [Example 4-258, 6-{(E)-1-[3-Chloro-4-(propan-2-yloxy)phenyl]-2-[(2R)-5-oxopyrrolidin-2-yl]ethenyl}-3-cyclopropylpyridin-2(1H)-one] |
| 500 to 3000 | O=C1CC[C@H](/C=C(\c2ccc(C(F)(F)F)cc2)c2ccc(C(F)(F)F)c(=O)[nH]2)N1 [Example 4-259, 6-{(E)-2-[(2R)-5-Oxopyrrolidin-2-yl]-1-[4-(trifluoromethyl)phenyl]ethenyl}-3-(trifluoromethyl)pyridin-2(1H)-one] |
| 500 to 3000 | COCCCc1ccc(/C(=C\[C@H]2CCC(=O)N2)c2ccc(Cl)c(=O)[nH]2)cc1 [Example 4-264, 3-Chloro-6-{(E)-1-[4-(3-methoxypropyl)phenyl]-2-[(2R)-5-oxopyrrolidin-2-yl]ethenyl}pyridin-2(1H)-one] |
| 10 to 500 | O=C1CC[C@H](/C=C(\c2ccc(C3CC3)cc2)c2ccc(C3CC3)c(=O)[nH]2)N1 [Example 4-268, 3-Cyclopropyl-6-{(E)-1-(4-cyclopropylphenyl)-2-[(2R)-5-oxopyrrolidin-2-yl]ethenyl}pyridin-2(1H)-one] |
| 10 to 500 | O=C1CC[C@H](/C=C(\c2ccc(OC3CC3)c(Cl)c2)c2ccc(C3CC3)c(=O)[nH]2)N1 [Example 4-269, 6-{(E)-1-[3-Chloro-4-(cyclopropyloxy)phenyl]-2-[(2R)-5-oxopyrrolidin-2-yl]ethenyl}-3-cyclopropylpyridin-2(1H)-one] |
